Assay results published in US9388216B2, “Methods of treating reproductive cancer” (Medical Research Council, priority 2006, dated 2016).
Non-standard residues stand in square brackets, D forms with d. pGlu = O=C1CC[C@@H](C(=O)O)N1

Columns and labels:
[1] = system: GnRH-induced PARP cleavage (caspase 3 activation) in HEK293/rGnRHR cells; assay: Inhibition of GnRH-induced PARP cleavage by chemical inhibitors; settings: for remaining GnRH I-induced PARP cleavage, mean±S.E.M.: 100 nM GnRH I plus inhibitor; for remaining GnRH I-induced PARP cleavage, mean±S.E.M. / remaining GnRH II-induced PARP cleavage, mean±S.E.M. / effect on GnRH-induced apoptosis / caspase 3 activation (in words): 48 h, complete medium; for remaining GnRH II-induced PARP cleavage, mean±S.E.M.: 100 nM GnRH II plus inhibitor
Procedure: Cells were maintained in Dulbecco's modified Eagles medium (DMEM) (Sigma) supplemented with 10% fetal bovine serum, 2% glutamine and 1% penicillin (10,000 units/ml)/streptomycin (10,000 μg/ml) at 37° C. in a humidified 5% CO2 atmosphere. Cell treatments were performed at 37° C. in serum-containing medium with varying molecule concentrations and time periods, as indicated in the figure legends.
After stimulation of cells growing on 6-well plates, cell monolayers were placed on ice, washed twice in ice-cod Dulbecco's phosphate buffered saline (DPBS), and lysed in a NP-40-based solubilisation buffer (5 mM HEPES, 0.25 M NaCl, 0.5% NP-40, 10% glycerol, 2 mM EDTA pH8.0, 1 mM PMSF, 0.01 mg/ml leupeptin, 1 mM Na2VO4). Solubilised lysates were clarified by centrifugation at 15,000 rpm for 15 min. A 50 μl-aliquot of clarified whole-cell lysate was mixed with an equal volume of 2× Laemmli sample buffer, resolved by SDS-polyacrylamide gel electrophoresis (SDS-PAGE) and transferred to a PVDF membrane (NEN Life Sciences/PerkinElmer Life and Analytical Sciences; Beaconsfield, Bucks, UK). These membranes were blocked in a 4% bovine serum albumin, 50 mM Tris-HCl, pH 7.0, 0.05% Tween-20 and 0.05% NP-40 blocking solution. […] Apoptosis was assessed by incubating the PVDF membranes with a 1:1,000 dilution of anticleaved PARP rabbit polyclonal antibody at 4° C. with gentle shaking overnight. […] An alkaline phosphatase conjugated IgG (Sigma) was employed as a secondary antibody in all cases. Visualization of proteins was performed using enzyme-linked chemifluoresence (Amersham Biosciences Ltd.; St. Giles, Bucks, UK) and quantified using a Typhoon 9400 Phosphorimager.
Then, cells were lysed and a western blot with specific anti-cleaved PARP antibody was carried out as explained before.

[2] = system: HEK293/hGnRHR cells; assay: Cell growth inhibition (viable cell number after 5 days of continuous treatment) in HEK293/hGnRHR cells; assay type: cell-based, human; settings: for fold more potent than GnRH I to induce cell death / inhibit cell growth / antiproliferative/apoptotic potency compared with GnRH I (in words): human receptor; for antiproliferative/apoptotic potency compared with GnRH I (in words): 5 days
Procedure: (§1) For the first method, HEK293 cells expressing various GnRH receptor constructs were seeded into 12-well PLL-coated plates at 50,000 cells (in 1 ml)/well and cultured with continuous GnRH exposure for five days, adding fresh peptide every day. Trypan Blue-excluding cells were then counted with a haemocytometer. For the second method, cells were seeded into 96-well plates at 5,000 cells (in 100 μl)/well and treated exactly as described before. 10 μl WST-1 reagent (Roche Diagnostics Ltd.; Lewes, East Sussex, UK) was added directly to each well and, after 3 h at 37° C., absorbance was read at 450 nm (with a reference at 690 nm) against a background control as blank using a microplate ELISA reader.
(§2) Bar graphs and curves were obtained using Prism 3.0 (GraphPad Software, Inc.: San Diego, Calif., USA). IC50 and EC50 values were determined by non-linear regression analysis. Curves were best-fitted to a one-site model. […] Values were normalised as specified in the figure legends.
(§3) Antiproliferation/apoptosis was estimated by determining cell number after five days of continuous exposure to the peptides. In parallel, this response was compared to the classical Gq coupled-PLCβ activation induced by GnRH peptides, as measured by the very well characterized inositol phosphates accumulation protocol. Both outputs were determined in two HEK293 cell lines; one expressing the rat receptor and the other expressing the human receptor. The human cell line was included in the study because this species may be clinically more relevant and the very low receptor expression may better reflect the in vivo tumoural state. In fact, due to poor binding, the precise affinity of the analogues on this cell line could not be determined.

[3] = system: HEK293/rGnRHR cells; assay: Cell growth inhibition (viable cell number after 5 days of continuous treatment) in HEK293/rGnRHR cells; assay type: cell-based, rat; settings: for fold more potent than GnRH I to induce cell death / inhibit cell growth / antiproliferative/apoptotic potency compared with GnRH I (in words): rat receptor; for antiproliferative/apoptotic potency compared with GnRH I (in words): 5 days
Procedure: as §1, §2, §3

[4] = target: T1, rat GnRH receptor (Rattus norvegicus, UniProt P30969); assay: Accumulation of total inositol phosphates (PLCβ activation) in HEK293/rGnRHR cells; assay type: cell-based
T1 construct: expressed in transfected cells
T1 sequence (P30969 1-327): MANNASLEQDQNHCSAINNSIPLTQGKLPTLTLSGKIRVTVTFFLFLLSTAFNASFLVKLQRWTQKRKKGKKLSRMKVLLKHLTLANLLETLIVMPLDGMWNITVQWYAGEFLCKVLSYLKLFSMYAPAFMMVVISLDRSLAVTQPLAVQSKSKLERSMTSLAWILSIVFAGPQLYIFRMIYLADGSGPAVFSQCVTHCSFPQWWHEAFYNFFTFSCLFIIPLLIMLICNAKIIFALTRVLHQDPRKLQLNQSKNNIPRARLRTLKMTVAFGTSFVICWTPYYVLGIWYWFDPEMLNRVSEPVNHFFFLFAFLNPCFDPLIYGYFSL
Procedure: HEK293 cells stably expressing the GnRH receptor growing on 12-well PLL-coated plates were pre-labelled with 1 μCi/ml myo-[H3]inositol (Amersham) in inositol-free DMEM (Sigma) for 48 h. On the day of the experiment, cells were washed with assay buffer (140 mM NaCl, 20 mM HEPES, 8 mM glucose, 4 mM KCl, 1 mM MgCl2, 1 mM CaCl2, 1 mg/ml BSA), pre-incubated with 10 mM LiCl (in assay buffer) for 30 min, and stimulated with different concentrations of the peptides (in the same buffer) for 1 h at 37° C. Incubations were terminated by removing the culture medium and lysing the cells in ice cold 10 mM formic acid for 30 min. Inositol phosphates were extracted by chromatography with an anion exchange resin (AG® 1-X8, Bio-Rad) using 1 M ammonium formate and 0.1 M formic acid. Liquid scintillant was added to the final eluate and [3H]inositol phosphates were measured in the β-counter.
as §2

[5] = target: T2, human GnRH receptor (Homo sapiens, UniProt P30968); assay: Accumulation of total inositol phosphates (PLCβ activation) in HEK293/hGnRHR cells; assay type: cell-based
T2 construct: expressed in transfected cells
T2 sequence (P30968 1-328): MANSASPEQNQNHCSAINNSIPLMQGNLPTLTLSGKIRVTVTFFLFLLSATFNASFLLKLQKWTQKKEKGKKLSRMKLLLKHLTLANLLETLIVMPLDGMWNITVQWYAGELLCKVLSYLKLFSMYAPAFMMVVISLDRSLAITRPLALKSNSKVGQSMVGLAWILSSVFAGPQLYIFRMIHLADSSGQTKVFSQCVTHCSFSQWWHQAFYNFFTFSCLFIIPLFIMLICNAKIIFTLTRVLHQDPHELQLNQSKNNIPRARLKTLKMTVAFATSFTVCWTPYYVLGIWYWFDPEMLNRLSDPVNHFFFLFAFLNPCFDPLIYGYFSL

[6] = target: T1, rat GnRH receptor; assay: Competition binding assay with [125I][His5,D-Trp6]GnRH I in HEK293/rGnRHR cells
Procedure: Cell monolayers growing on 12-well PLL-coated plates were incubated in binding buffer (10 mM HEPES, 1% BSA in DMEM) containing […] radioligand (100,000 cpm) and 10-6-10-12 M unlabelled ligand. Equilibrium was reached after incubation for 4 h at 4° C. Cells were then lysed in 0.1 M NaOH and the radioactivity in the extract was measured in a 1261 Wallac MultiGamma counter.
as §2

[7] = HEK293/human GnRH receptor cells

**Q.** `O=C1c2ccccc2-c2n[nH]c3cccc1c23` [JNKII inhibitor] was tested. Which “remaining GnRH I-induced PARP cleavage, mean±S.E.M.” value [1] did it give?
**A.** Its value is 84±29.

**Q.** And the “remaining GnRH II-induced PARP cleavage, mean±S.E.M.” value [1]?
**A.** The value was 72±22.

**Q.** With `CC(C)(C)n1nc(-c2ccc(Cl)cc2)c2c(N)ncnc21` [PP2] as the molecule, how does the “remaining GnRH I-induced PARP cleavage, mean±S.E.M.” value [1] read?
**A.** The value was 20±4.

**Q.** What about the “remaining GnRH II-induced PARP cleavage, mean±S.E.M.” value [1] of the same molecule?
**A.** The value was 18±2.

**Q.** Which results are given for “[Tyr8]GnRH I: GnRH I with Arg8 substituted by Tyr8 of GnRH II (QHWSYGLYPG; Gonadoliberin-1; UniProt P01148 24-33, looked up, variant R8Y)”?
**A.** antiproliferative effect compared with inositol phosphate production, selectivity (in words) [2, 7]: most selective antiproliferative/apoptotic analogue; fold more potent than GnRH I to induce cell death / inhibit cell growth [2]: 10.7 fold; fold more potent to suppress cell growth relative to GnRH I ([3]; range across rat and human receptor cell lines (discussion)): 4-11 fold; fold more potent than GnRH I to induce cell death / inhibit cell growth [3]: 4.2 fold; fold less potent to stimulate PLCβ compared to GnRH I [4]: 27.3 fold; fold less potent to stimulate PLCβ relative to GnRH I [5]: 23.7 fold; affinity compared with GnRH I (in words) [6]: very low affinity

**Q.** What does the source list for “[His5,Tyr8]GnRH I: double mutant GnRH I incorporating His5 and Tyr8 of GnRH II ([pGlu]HWSHGLYPG-NH2; ends and bridges not checked; UniProt P01148 24-33, looked up, variant Y5H R8Y)”?
**A.** antiproliferative/apoptotic potency compared with GnRH I (in words) [2]: more potent to inhibit cell growth than GnRH I; antiproliferative/apoptotic potency compared with GnRH I (in words) [3]: more potent to inhibit cell growth than GnRH I; potency to stimulate inositol phosphates accumulation / PLCβ activation compared with GnRH I (in words) [4]: features intermediate between GnRH I and [Tyr8]GnRH I; potency to stimulate inositol phosphates accumulation / PLCβ activation compared with GnRH I (in words) [5]: features intermediate between GnRH I and [Tyr8]GnRH I; affinity compared with GnRH I (in words) [6]: features intermediate between GnRH I and [Tyr8]GnRH I

**Q.** What does the source list for `COc1cccc(-c2cc(=O)c3ccccc3o2)c1N` [PD98059]?
**A.** remaining GnRH I-induced PARP cleavage, mean±S.E.M. [1]: 17±6; remaining GnRH II-induced PARP cleavage, mean±S.E.M. [1]: 14±13

**Q.** With `CO[C@H]1[C@@H](OC)C[C@H](C)[C@@H](OC)C2=CC(=O)C=C(NC(=O)/C(C)=C/C=C\[C@H](OC)[C@@H](OC(N)=O)/C(C)=C/[C@@H]1C)C2=O` [herbimycin A] as the molecule, how does the “remaining GnRH I-induced PARP cleavage, mean±S.E.M.” value [1] read?
**A.** The value was 9±1.

**Q.** What about the “remaining GnRH II-induced PARP cleavage, mean±S.E.M.” value [1] of the same molecule?
**A.** The value was 41±4.

**Q.** With “[His5,Trp7]GnRH I: double mutant GnRH I incorporating His5 and Trp7 of GnRH II ([pGlu]HWSHGWRPG-NH2; ends and bridges not checked; UniProt P01148 24-33, looked up, variant Y5H L7W)” as the molecule, how does the “antiproliferative/apoptotic potency compared with GnRH I (in words)” value [2] read?
**A.** Its value is “improved antiproliferative/apoptotic capacity”.

**Q.** And the “antiproliferative/apoptotic potency compared with GnRH I (in words)” value [3]?
**A.** Its value is “improved antiproliferative/apoptotic capacity”.

**Q.** With “[Trp7]GnRH I: GnRH I with Leu7 replaced by Trp7 of GnRH II (QHWSYGWRPG; Gonadoliberin-1; UniProt P01148 24-33, looked up, variant L7W)” as the molecule, how does the “fold more potent than GnRH I to induce cell death / inhibit cell growth” value [2] read?
**A.** The value was 19.3 fold.

**Q.** And the “fold more potent than GnRH I to induce cell death / inhibit cell growth” value [3]?
**A.** Its value is 9.1 fold.

**Q.** And the “potency to stimulate inositol phosphates accumulation / PLCβ activation compared with GnRH I (in words)” value [4]?
**A.** The value was “did not modify the affinity and PLCβ activation capacity”.

**Q.** What about the “potency to stimulate inositol phosphates accumulation / PLCβ activation compared with GnRH I (in words)” value [5] of the same molecule?
**A.** The value was “did not modify the affinity and PLCβ activation capacity”.

**Q.** What about the “affinity compared with GnRH I (in words)” value [6] of the same molecule?
**A.** Its value is “did not modify the affinity and PLCβ activation capacity”.

**Q.** For PTX: Gi inhibitor from Biomol, which “effect on GnRH-induced apoptosis / caspase 3 activation (in words)” value [1] is on record?
**A.** The value was “not having any effect”.

**Q.** `COc1ccc2c(c1)c(C1=C(c3c[nH]c4ccccc34)C(=O)NC1=O)cn2CCCN(C)C` [Gö 6983] was tested. Which “remaining GnRH I-induced PARP cleavage, mean±S.E.M.” value [1] did it give?
**A.** Its value is 47±22.

**Q.** What about the “remaining GnRH II-induced PARP cleavage, mean±S.E.M.” value [1] of the same molecule?
**A.** Its value is 35±18.

**Q.** What about the “effect on GnRH-induced apoptosis / caspase 3 activation (in words)” value [1] of the same molecule?
**A.** Its value is “clearly more efficient than Ro-31-8220”.

**Q.** What about the “extent of the effect upon GnRH-stimulated apoptosis” value ([1]; discussion) of the same molecule?
**A.** Its value is roughly 40%.

**Q.** With `COc1cc2ncnc(Nc3cccc(Cl)c3)c2cc1OC` [AG1478] as the molecule, how does the “remaining GnRH I-induced PARP cleavage, mean±S.E.M.” value [1] read?
**A.** The value was 13±10.

**Q.** What about the “remaining GnRH II-induced PARP cleavage, mean±S.E.M.” value [1] of the same molecule?
**A.** Its value is 18±11.

**Q.** With `NCCOB(c1ccccc1)c1ccccc1` [2-APB, 2-aminoethyl-diphenilborinate] as the molecule, how does the “PARP cleavage caused by the inhibitor itself (cytotoxicity)” value ([1]; inhibitor alone) read?
**A.** The value was “significant PARP cleavage by themselves”.

**Q.** How did the “effect on GnRH-induced apoptosis / caspase 3 activation (in words)” value [1] turn out when `Cn1cc(C2=C(c3cn(CCCSC(=N)N)c4ccccc34)C(=O)NC2=O)c2ccccc21` [Ro-31-8220] was run?
**A.** The value was “no effect”.

**Q.** What does the source list for “[His5]GnRH I: GnRH I with Tyr5 substituted by His5 of GnRH II (QHWSHGLRPG; Gonadoliberin-1; UniProt P01148 24-33, looked up, variant Y5H)”?
**A.** antiproliferative potency (in words) [2, 7]: most potent antiproliferative/apoptotic agent ever described; antiproliferative/apoptotic potency compared with GnRH I (in words) [2]: better potencies; antiproliferative/apoptotic potency compared with GnRH I (in words) [3]: better potencies; potency to stimulate inositol phosphates accumulation / PLCβ activation compared with GnRH I (in words) [4]: better potencies; potency to stimulate inositol phosphates accumulation / PLCβ activation compared with GnRH I (in words) [5]: better potencies; affinity compared with GnRH I (in words) [6]: higher affinity than GnRH I

**Q.** Which results are given for “[Trp7,Tyr8]GnRH I: double mutant GnRH I incorporating Trp7 and Tyr8 of GnRH II ([pGlu]HWSYGWYPG-NH2; ends and bridges not checked; UniProt P01148 24-33, looked up, variant L7W R8Y)”?
**A.** antiproliferative/apoptotic potency compared with GnRH I (in words) [2]: almost identical to those of [Tyr8]GnRH I; antiproliferative/apoptotic potency compared with GnRH I (in words) [3]: almost identical to those of [Tyr8]GnRH I; potency to stimulate inositol phosphates accumulation / PLCβ activation compared with GnRH I (in words) [4]: almost identical to those of [Tyr8]GnRH I; potency to stimulate inositol phosphates accumulation / PLCβ activation compared with GnRH I (in words) [5]: almost identical to those of [Tyr8]GnRH I; affinity compared with GnRH I (in words) [6]: almost identical to those of [Tyr8]GnRH I
